Where two headings read alike, the source gives them in different places.
Tests used:
Assay type in all cases: cell-based, human
[1] = system: HCT116-DoxR cells (doxorubicin resistant colorectal carcinoma); assay: MTS cell viability assay, HCT116-DoxR 2D; conditions: for IC50: 48 h of exposure, MTS, relative IC50, mean + SEM, read-out: IC50 HCT116-DoxR (2D); for SI HCT116-DoxR: ratio IC50 fibroblasts / IC50 HCT116-DoxR
Protocol: (§1) The antiproliferative effect of the Cu(II) complexes in tumor and healthy cell lines was assessed through the MTS assay, a colorimetric method that is widely used to evaluate cellular viability, specifically mitochondrial viability.[53],[54] Cellular viability was determined after 48 h exposure to a concentration range (0.1–50 μM) of Cu(II) complexes in three tumor cell lines. […] Additionally, the viability of healthy primary dermal fibroblasts was performed as a comparison of the complexes’ antiproliferative effects in normal cells.
(§2) Cellular viability assays were performed using HCT116, HCT116-DoxR, and A2780 cancer cell lines as well as normal human primary fibroblasts. Cells were seeded at a density of 0.75 × 10^5 cells/mL in 96-well plates and incubated at 37 °C with 5% (v/v) CO2 for 24 h. After this incubation period, the copper complexes were accurately weighed and immediately dissolved in 100% (v/v) dimethyl sulfoxide (DMSO). Subsequently, the complexes were diluted to the final concentration using a cell culture medium. The culture medium in each well was replaced with fresh medium containing varying concentrations of the complexes (ranging from 0.01 to 50 μM). Negative controls contained culture medium with 0.1% (v/v) DMSO, and positive controls contained 0.4 μM Dox.
(§3) After an additional 48 h of incubation under the same conditions, cellular viability was assessed using the CellTiter 96 Aqueous One Solution Cell Proliferation Assay kit (Promega, Madison, USA). Metabolically active cells contain mitochondrial dehydrogenases that can reduce 3-(4,5-dimethylthiazol-2-yl)-5-(3-carboxymethoxyphenyl)-2-(4-sulfophenyl)-2H-tetrazolium, the inner salt (MTS) to formazan. The absorbance of formazan, measured at 490 nm in a microplate reader (Tecan Infinite M200, Tecan, Männedorf, Switzerland), is directly proportional to the number of viable cells.[104]
(§4) The cell viability versus concentration graphics were analyzed using Prism 8 software (GraphPad) to determine the half-maximal inhibitory concentration (IC50) of each complex for the respective cell line. Additionally, the selective index (SI) for each complex was calculated by dividing the IC50 of human fibroblasts by the IC50 values of the tested cancer cell lines.

[2] = system: A2780 cells (ovarian carcinoma); assay: MTS cell viability assay, A2780; conditions: for IC50: 48 h of exposure, MTS, relative IC50, mean + SEM; for SI A2780: ratio IC50 fibroblasts / IC50 A2780
Protocol: as §1, §2, §3, §4

HCT116-DoxR cells = assay: Cell cycle progression analysis (PI, flow cytometry); conditions: complexes at IC50, Dox 6 μM, Cis 5 μM; 9, 12, 18, 24 h after double thymidine block
From the text: It is important to note that exposure to increased levels of ROS can trigger genotoxic stress, an effect often associated with chemotherapy and that may promote cell cycle arrest.[84] The cell cycle comprises a sequential set of cellular events such as checkpoints that regulate transitions between different phases when cells are under stress conditions. Indeed, if DNA damage occurs, interphase checkpoints can trigger cell cycle arrest, repair, and induction of apoptosis or senescence.[85] Indeed, data in Table 7 show some degree of accumulation of both complexes in the nucleus, which may expose the genomic DNA to their action. […] This DNA intercalating fluorophore allows the analysis of DNA content in various phases of the cell cycle (G0/G1, S, and G2/M) (the fluorescence intensity emitted by PI doubles with the duplication of DNA quantity in the G1 and G2 phases),[86] and its detection can be performed by flow cytometry. […] To ensure that all cells were in the same phase of the cell cycle (S phase) when exposed to the Cu(II) complexes and controls, a double thymidine block was applied.[83]
HCT116-DoxR cells were cultured in six-well plates at a density of 1 × 10^5 cells/mL and incubated at 37 °C, 5% (v/v) CO2, and 99% (v/v) relative humidity for 8 h. To ensure that cells were in the same phase of the cell cycle, they were subjected to a double thymidine block for synchronization. At the end of the incubation, the culture medium was replaced with 2 mM thymidine in complete medium, and cells were incubated for 16 h. After incubation, the thymidine-containing medium was replaced with a thymidine-free complete medium, and cells were incubated for an additional 8 h. After this time, a second thymidine block was applied, as described earlier. At the end of the incubation, the thymidine-containing medium was replaced with a fresh medium containing the cooper complexes at their IC50 concentration. A 0.1% (v/v) DMSO solution was used as vehicle control, while 6 μM Dox, and 5 μM Cis were used as positive controls. Cells were incubated again for 9, 12, 18, and 24 h. Immediately after exposure (0 h) and at the end of each incubation period, the medium was removed, cells detached with TrypLE Express, and centrifuged for 5 min at 650 × g, at 4 °C. The pellet was resuspended in cold PBS 1× and centrifuged at 3000 × g for 5 min, at 4 °C. Later, the pellet was resuspended in cold PBS 1×, and 1 mL of 80% (v/v) cold ethanol was added dropwise to each tube. […] The DNA content was evaluated on an Attune acoustic focusing flow cytometer (Life Technologies, Carlsbad, USA), and the results were analyzed by the respective software (Attune Cytometric software).

SMILES | IC50 [1] | SI HCT116-DoxR [1] | IC50 [2] | SI A2780 [2] | effect on cell cycle progression (HCT116-DoxR cells) | IC50 ([1]; Homo sapiens) | IC50 ([2]; Homo sapiens, A2780)
[Cl][Cu-3]12([Cl])[n+]3ccccc3-c3cc(-c4cccc5ccccc45)cc([n+]31)-c1cccc[n+]12 [Cu1a] | 240 ± 20 nM | 38.6 | 530 ± 70 nM | 17.5 | a delay in the cell cycle at the S phase after 9 h, in the G2/M after 12 h of incubation, and a delay in the cell cycle at G0/G1 at 18 h | – | –
COc1cccc2c1C(=O)c1c(O)c3c(c(O)c1C2=O)C[C@@](O)(C(=O)CO)C[C@@H]3O[C@H]1C[C@H](N)[C@H](O)[C@H](C)O1 [Doxorubicin] | – | – | – | – | did not affect the cell cycle progression or cause an arrest | > 6000 nM | 100 ± 40 nM
N.N.[Cl][Pt][Cl] [Cisplatin] | – | – | 1900 ± 200 nM | – | has a cytostatic effect in G2/M after incubation for 24 h | – | –
[Cl][Cu-3]12([Cl])[n+]3ccccc3-c3cc(-c4ccc5ccccc5c4)cc([n+]31)-c1cccc[n+]12 [Cu1b] | 290 ± 20 nM | 45.9 | 570 ± 60 nM | 23.3 | a delay in the cell cycle at the S phase after 9 h, in the G2/M after 12 h of incubation, and a delay in the cell cycle at G0/G1 at 18 h | – | –
